# Measurements from US20190369122A1, “METABOLIC DISORDERS” (priority 2016, published 2019).
# Tests used:
# [1] = tested on: G6pase, Pepck, Srebp1c, Fasn, Irs1, Irs2; assay: Hepatic gene expression in GF mice (real-time PCR); type: in vivo, mouse; settings: 500 μg i.p. twice per day for 3 days
# Method: An intraperitoneal glucose tolerance test (using 1 g glucose per kg body weight) was then performed after a 4 h fast. Blood glucose levels were measured from tail blood using HemoCue201+analyzer (HemoCue, Angelholm, Sweden). Liver and plasma samples were collected after a 4 h fast. Mice were under isoflurane anesthesia and killed by cervical dislocation. Fresh liver was taken and snap-frozen in liquid nitrogen and stored at −80° C. until protein extraction.
# Mouse liver was homogenized in RLT buffer with ([…] using TissueLyser (Qiagen, Hilden, Germany). RNA was isolated using the RNeasy Minikit (Qiagen) and reverse transcribed to synthesize cDNA using High Capacity cDNA Reverse Transcription Kit (Applied Biosystems, Foster City, Calif., USA) according to the manufacturer's protocol. Real-time PCR was performed using 1×SYBR Green Master Mix (Thermo Scientific, Waltham, Mass., USA) using the following primers.
# [2] = Targeted measurements in portal and peripheral blood, first cohort; settings: human portal vs peripheral blood
# Excerpt: Two human cohorts were used in this study. The first cohort comprised five obese subjects with type 2 diabetes and ten BMI-matched subjects without type 2 diabetes who were undergoing laparoscopic Roux-and-Y gastric bypass surgery at the Slotervaart Hospital, Amsterdam, the Netherlands, see Table 2. Subjects were fasted overnight before the morning of the surgery, and a peripheral venous sample was taken just before the patient went into the operating room. Anthropometric measurements and a stool sample were also taken before surgery. During the surgery, a portal vein sample (vena puncture) was taken as previously described. Fasting glucose (by glucose meters, Roche Diagnostics), insulin (by an electrochemiluminescence immunoassay, Roche Modular System) and HbA1c (Menarini Diagnostic) were measured in the peripheral blood. All participants gave informed consent before the surgery and the protocol was approved by the Medical Ethical Committee of the Slotervaart Hospital, Amsterdam, the Netherlands.
# The samples were then reconstituted with 5% HCl in n-butanol at 70° C. for 1 h, allowing n-butyl ester to be formed. […] Samples (5 μl) were injected onto a C18 BEH column (2.1×100 mm with 1.7 μm particles; Waters, Milford, Mass.) using a gradient consisting of water with 0.1% formic acid (A-phase) and acetonitrile with 0.1% formic acid (B-phase). […]
smiles,measurement,setting,value
O=C(O)CCc1cnc[nH]1 [imidazole propionate],hepatic Irs1 and Irs2 mRNA levels,[1],no significant changes
same,hepatic expression of Srebp1c and Fasn,[1],did not affect
same,hepatic expression of G6pase and Pepck,[1]; vs controls,significantly increased
same,metabolism inferred from similar portal and peripheral blood concentrations,[2],not metabolized
